# Assay results taken from a melting point compilation (Tetko et al.; mined from patent text by program, amines drawn as free bases though some values may be those of a salt).
row,melting point,SMILES
1,149 to 150 °C,COc1ccc(S(=O)(=O)CCCc2ccc(CC(=O)O)cc2)cc1
2,193 °C,N#CC1=C(C2CCCCC2)Nc2n[nH]cc2C1c1cccc(C#N)c1Br (stereo unspecified)
3,119 °C,CC(C)c1c(Cl)nc2ncnn2c1Cl
4,150 °C,NCCNS(=O)(=O)c1cc(NC(=O)c2cnn3c(C(F)F)cc(-c4ccc(C(F)(F)F)cc4)nc23)c(Cl)s1
5,109 to 111 °C,O=C(O)c1cc(F)c(F)c(Cl)c1F
6,189 to 190 °C,CCN(c1cc(C)c(C)c2cc(-c3ncc(CO)s3)[nH]c12)S(=O)(=O)c1cccs1
7,312 to 313 °C,Cn1cc(C2=C(c3c4n(c5ccccc35)CCC(C#N)C4)C(=O)NC2=O)c2ccccc21 (stereo unspecified)
8,161 to 162 °C,COc1ccnc(CCc2nc3cc(-c4ccc(OCc5ccccc5)cc4)cnc3[nH]2)c1
9,184 to 186 °C,CCc1ccccc1NC(=O)c1ccccc1CN1C(=O)C2(COc3cc4c(cc32)CCO4)c2ccccc21 (stereo unspecified)
10,121 to 122 °C,COc1cc(C)ccc1OCCCN1CCC(C(O)(c2ccc(F)cc2)c2ccc(F)cc2)CC1
11,95 to 105 °C,CCCCCCCCCCCCCOc1ccc(CNc2ccc(C(=O)OCC)cc2)cc1
12,254 to 256 °C,FC(F)(F)c1ccc2nc(N3CCN(Cc4c(Cl)cccc4Cl)CC3)[nH]c2c1
13,190 to 192 °C,COC(=O)c1nc(Br)c(F)c(NC(C)=O)c1Cl
14,118 to 120 °C,CCOc1sc(C)nc1S(N)(=O)=O
15,188 °C,O=CNNc1ccc(NC(=S)Nc2ccccc2)cc1
16,188 to 190 °C,COc1ccc(-c2nc(CO)c[nH]2)cc1OC1CCCC1
17,177 to 179 °C,COC(=O)c1cc(N)c(F)c(-c2ccc(Cl)cc2)n1
18,233 to 237 °C,Cn1c(-c2ccc(-n3cnc4ccccc43)cc2)cnc1[C@H](Cc1ccccn1)N(C=O)c1cc2ccccc2[nH]1
19,219 to 220 °C,CC1(C)OC(=O)Nc2ccc(/C(=C/C(N)=O)c3ccccc3)cc21
20,75 to 79 °C,O=C(O)CCCCCC[C@H]1CC[C@@H](O)CC1
21,> 210 °C,Oc1ccc(CCNc2ncnc3nccnc23)cc1
22,138 to 140 °C,O=[N+]([O-])c1ccccc1NCc1cc(Cl)cc(Cl)c1
23,153 to 155 °C,COc1ccc(C(C)=O)c(CC(=O)O)c1
24,227 to 229 °C,CCCc1nc2c(N)nc(C)c(C)c2n1Cc1cc(-c2ccc(F)cc2)no1
25,136 to 138 °C,COc1ccc(-c2ccc3c(C)c(OC)ccc3c2)cc1

row,melting point,SMILES
1,205 to 207 °C,CNc1nc(Nc2ccc(OCCNC(=O)OC(C)(C)C)cc2)ncc1[N+](=O)[O-]
2,125 to 127 °C,O=c1cc(-c2ccsc2)c2ccc(CCl)cc2o1
3,216 to 227 °C,Cc1cnc2c(NC(=O)c3c(Cl)cccc3Cl)cccc2c1Cl
4,152 °C,CCOC(=O)C(=O)Nc1ccc(C#N)cc1[N+](=O)[O-]
5,157 to 159 °C,COc1ccc(NC(=O)Oc2cccc3ccoc23)cc1
6,196 to 200 °C,CC(=O)Nc1ccc(C(NC(c2ccccc2)c2ccccc2)P(O)O)cc1 (stereo unspecified)
7,93 to 96 °C,CCC(=O)NCCC1CCc2cc(F)c(O)cc21 (stereo unspecified)
8,168 to 170 °C,Cc1nc(NC(=O)c2ccc(OC(F)(F)F)cc2)sc1C(=O)NCc1ccccc1
9,142 to 144 °C,C#CCc1c(-c2ccccc2)nc(C)n(C)c1=O
10,149 °C,CCOC(=O)C(=NO)C(=O)c1ccc(Br)cc1
11,166 to 168 °C,CC1(N2C(=O)c3ccc(CNC(=O)c4ccc(S(C)(=O)=O)cc4)cc3C2=O)CCC(=O)NC1=O (stereo unspecified)
12,126 to 128 °C,CCOC(=O)C(C)(C)NC(=O)c1cccc(C2=NC(C)(C)Cc3c(CC#N)c(OC)c4c(c32)CC(C)(C)O4)c1
13,139 °C,Cc1ccc(S(=O)(=O)OCCCn2c(=NC(=O)C(F)(F)F)sc3cc(OC(F)(F)F)ccc32)cc1
14,207 °C,CCOc1ccc(-c2c(Cl)ncn2-c2ccc(S(C)(=O)=O)cc2)cc1
15,175 °C,CCOC(=O)C(=O)Nc1ccc2cc(Br)ccc2c1[N+](=O)[O-]
16,152 to 153 °C,Cc1oc2c(-n3c(=O)cc(C(F)(F)F)n(C)c3=O)ccc(Cl)c2c1C
17,178 to 179 °C,CCCCNC(=O)Nc1ccc(S(C)=O)cc1C(=O)NCC1CCN(C(c2ccccc2)c2ccccc2)CC1 (stereo unspecified)
18,135 °C,CC(=O)OC1CSC(Oc2cncc(-c3ccc(OC(C)C)cc3)c2)C(OC(C)=O)C1OC(C)=O (stereo unspecified)
19,157 °C,COP(=O)(OC)C(O)C(CC1CCCCC1)NC(=O)C(CC(C)C)NC(=O)OC(C)(C)C (stereo unspecified)
20,174 to 175 °C,Cc1oc2c(-n3c(=O)cc(C(F)(F)F)n(C)c3=O)ccc(Cl)c2c1[N+](=O)[O-]
21,201 to 202 °C,Cc1nc(-c2ccccc2)ncc1CN1CCN(c2ccc(O)cc2)CC1
22,108 to 109 °C,CNC(=O)c1ccc2ccccc2c1
23,180 °C,O=C(c1ccc(Cl)cc1)c1ccc2nc(Cl)cc(CCc3cccc(Cl)c3)c2c1
24,132 to 134 °C,COc1cccc2c1nc(C(F)F)n2-c1nc(N2CCOCC2)cc(N2C[C@@H](C)O[C@@H](C)C2)n1
25,265 to 268 °C,CNCCCn1c2ccc(O)cc2c2c3c(c(-c4ccccc4)cc21)C(=O)NC3=O

row,melting point,SMILES
1,159 °C,O=C(NCCN1CCN(c2cc(C(F)(F)F)ccn2)CC1)c1ccc(F)cc1
2,215 to 216 °C,COc1ccc(Cn2c(=O)ccc3cnc(Nc4ccccc4)nc32)cc1
3,250 °C,COc1ccc(-c2nc(N)ncc2-c2ccc(=O)[nH]n2)cc1F
4,131 to 132 °C,O=C1Nc2ccccc2C1CCCCN1CCN(c2ccccn2)CC1 (stereo unspecified)
5,73 to 75 °C,NC(=O)c1ccnc(CCCCCCOCCCCCCBr)c1
6,69 to 71 °C,COc1cccc2c1CCCC2N1CCN(C)CC1 (stereo unspecified)
7,190 to 196 °C,O=C1NC(=O)C(S(=O)(=O)c2ccc(F)cc2)S1 (stereo unspecified)
8,191 to 193 °C,CC(=O)N1CC[C@H](Oc2ccc(C=Cc3cc4cc(C#N)ccc4o3)cc2O)C1
9,67 to 68 °C,CCCCCCCCCCCCC(OC(C)=O)C1=CC(=O)OC1O (stereo unspecified)
10,132 to 135 °C,CN(C(=O)N1CC(C)(c2ccccc2)C(c2ccc(Cl)cc2)=N1)c1ccc(Cl)cc1 (stereo unspecified)
11,109 to 110 °C,O[C@@H](CNCCOc1ccc2oc(-c3ccon3)cc2c1)COc1ccccc1F
12,200 to 201 °C,Cc1cccc(Nc2n[nH]c3ncnc(NCc4ccccc4)c23)c1
13,292 to 294 °C,CS(=O)(=O)c1cc(Cl)c2[nH]cc(CC(N)C(=O)O)c2c1 (stereo unspecified)
14,110 to 112 °C,Cc1cc(=O)n2cccc(OCc3ccccc3)c2n1
15,160 to 161 °C,O=C(O)CSc1ccc(/C=C/C(=O)NCc2cccnc2)cc1
16,> 275 °C,COC(=O)CCc1ccc(N2CCN(c3ccc(C(=N)NC(=O)OC)cc3)S2(=O)=O)cc1
17,65 to 67 °C,OCCc1c[nH]c2cc(Cl)c(Cl)cc12
18,208 to 210 °C,COc1ccc(Nc2cccc3c2C(=O)N(C2CCC(=O)NC2=O)C3=O)c(OC)c1 (stereo unspecified)
19,163 to 164 °C,CCn1ncc2c(NCc3ccccc3)c3ccc(OC)cc3nc21
20,223 to 225 °C,OCc1cc(O)ccc1/C=C/c1ccc(O)cc1
21,218 to 220 °C,Cc1nc(-c2ccc(N3CCOCC3)c([N+](=O)[O-])c2)sc1C(=O)O
22,92 °C,Oc1ccc(-c2nc3cc(O)cc(-c4ccccc4)c3o2)cc1
23,74 to 77 °C,COc1cc(C=CC(=O)CCCO)cc(OC)c1
24,103 to 104 °C,COc1ccc(F)cc1C(C)(C)CC(O)(CN1CCSc2ccccc21)C(F)(F)F (stereo unspecified)
25,148 to 150 °C,O=C(OCC1=CC(O)C2C=COC(OC3OC(CO)C(O)C(O)C3O)C12)c1ccc(O)cc1 (stereo unspecified)

row,melting point,SMILES
1,96 °C,CCOC(=O)C1=CC(=O)C2(C(=O)c3ccc(OC)cc3)OC2O1 (stereo unspecified)
2,150 to 151 °C,Oc1cccc(/C=C/c2nc(-c3ccccc3)cs2)c1
3,219 to 220 °C,ON=Cc1ccc(-c2ccc(O)cc2)c2ccoc12
4,94.5 to 96.2 °C,O=C(Nc1ccc(Cl)cc1)c1ccccc1F
5,193 °C,CCOC(=O)c1cn(CCCO)c(=O)c2cc(Cl)ccc12
6,70 to 72 °C,N#CC1CCCCn2cccc21 (stereo unspecified)
7,220 °C,CCCN(CCC)c1nc2c(N3CCCCCC3)nc(N3CCCCCC3)cc2c(=O)[nH]1
8,70 to 74 °C,O=C(O)CC1(CC(O)=NO)CCCC1
9,112 to 116 °C,COc1cc(OCc2ccccn2)ccc1/C=C/c1cc(/C=C/c2c[nH]c3ccccc23)n[nH]1
10,230 °C,CC1(C)CC(=O)Nc2c(CCN3CCN(c4noc5ccccc45)CC3)cc(F)cc21
11,92 to 94 °C,CN1CCC(c2ccc(OC(C)(C)CO)cc2)c2ccccc21 (stereo unspecified)
12,101 °C,COc1cc(C)c2c(=O)c3c(C)c(Cl)ccc3oc2c1OC
13,289 to 302 °C,O=c1ccc(-c2ccccc2O)n[nH]1
14,102 to 103 °C,C=CCOc1ccc(C(=O)C=Cc2c(OC)cccc2OC)cc1
15,90 to 91 °C,COC(=O)C(=O)Nc1cccc(OCCCBr)c1
16,263 to 266 °C,CC(C)(O)c1ccc(-c2cnc3[nH]c(=O)n(CCC4CCOCC4)c3n2)cc1
17,77.5 to 79 °C,COc1ccc2c(c1)c(Cc1cc(=O)n(-c3cc(C)cc(C)c3)[nH]1)c(C)n2C(=O)c1ccc(Cl)cc1
18,129 to 131 °C,CC(C)(C)c1cc(CN(c2cccnc2)S(=O)(=O)c2cccc(Br)c2)cc(C(C)(C)C)c1O
19,> 230 °C,CNc1cc(C)nc2c(S(=O)(=O)c3ccccc3)c(SC)nn12
20,239 to 240 °C,COC(=O)c1ccc2cc(-c3ccc(C(=O)O)c(C45CC6CC(CC(C6)C4)C5)c3)ccc2c1
21,176 to 178 °C,COc1ccc2c(c1CC1CCCC1)CC[N+]([O-])=C2Cc1c(Cl)cncc1Cl
22,212 to 216 °C,NS(=O)(=O)c1ccc(CCNC(=O)CCn2cnc3c(=O)[nH]cnc32)cc1

row,SMILES,melting point
1,NC1(c2cccc(Br)c2)CC1,135 to 137 °C
2,CC(C)(C)NCC(=O)c1cccc2cc(O)c(O)cc12,140 to 144 °C
3,N#Cc1nn(-c2c(Cl)cc(C(F)(F)F)cc2Cl)cc1-c1ccoc1,139 °C
4,CCCCCCc1cc2c(s1)-n1c(C)nnc1CN=C2c1ccccc1C,135 to 137 °C
